Data published in ChEMBL document CHEMBL4507301 (2021).

Columns and labels:
[1] = target: Serine/threonine-protein kinase PLK3 (Homo sapiens) (UniProt Q9H4B4); settings: Compound concentration 1000.0 nM
[2] = target: Myotonin-protein kinase (Homo sapiens) (UniProt Q09013); settings: Compound concentration 1000.0 nM
[3] = target: Serine/threonine-protein kinase Nek2 (Homo sapiens) (UniProt P51955); settings: Compound concentration 1000.0 nM
[4] = target: Eukaryotic translation initiation factor 2-alpha kinase 1 (Homo sapiens) (UniProt Q9BQI3); settings: Compound concentration 1000.0 nM
[5] = tested on: Mast/stem cell growth factor receptor Kit (Homo sapiens), P10721 [L576P]; settings: Compound concentration 1000.0 nM
[6] = tested on: Mast/stem cell growth factor receptor Kit (Homo sapiens), P10721 [V559D,V654A]; settings: Compound concentration 1000.0 nM
[7] = target: cGMP-dependent protein kinase 1 (Homo sapiens) (UniProt Q13976); settings: Compound concentration 1000.0 nM
[8] = target: Dual specificity mitogen-activated protein kinase kinase 1 (Homo sapiens) (UniProt Q02750); settings: Compound concentration 1000.0 nM
[9] = target: Histamine H2 receptor (Homo sapiens) (UniProt P25021); settings: Compound concentration 10.0 uM
[10] = tested on: Tyrosine-protein kinase ABL1 (Homo sapiens), P00519 [T315I]; settings: Compound concentration 1000.0 nM
[11] = target: Epithelial discoidin domain-containing receptor 1 (Homo sapiens) (UniProt Q08345); settings: Compound concentration 1000.0 nM
[12] = tested on: Mast/stem cell growth factor receptor Kit (Homo sapiens), P10721 [D816H]; settings: Compound concentration 1000.0 nM
[13] = target: Ribosomal protein S6 kinase alpha-3 (Homo sapiens) (UniProt P51812); settings: Compound concentration 1000.0 nM
[14] = target: Ribosomal protein S6 kinase alpha-4 (Homo sapiens) (UniProt O75676); settings: Compound concentration 1000.0 nM
[15] = target: 5'-AMP-activated protein kinase catalytic subunit alpha-1 (Homo sapiens) (UniProt Q13131); settings: Compound concentration 1000.0 nM
[16] = target: Dual specificity mitogen-activated protein kinase kinase 5 (Homo sapiens) (UniProt Q13163); settings: Compound concentration 1000.0 nM
[17] = target: Transient receptor potential cation channel subfamily M member 6 (Homo sapiens) (UniProt Q9BX84); settings: Compound concentration 1000.0 nM
[18] = target: NUAK family SNF1-like kinase 1 (Homo sapiens) (UniProt O60285); settings: Compound concentration 1000.0 nM
[19] = target: Tyrosine-protein kinase JAK1 (Homo sapiens) (UniProt P23458); settings: Compound concentration 1000.0 nM
[20] = target: Dual specificity protein kinase CLK4 (Homo sapiens) (UniProt Q9HAZ1); settings: Compound concentration 1000.0 nM
[21] = target: Serine/threonine-protein kinase DCLK2 (Homo sapiens) (UniProt Q8N568); settings: Compound concentration 1000.0 nM
[22] = target: Tyrosine-protein kinase Fer (Homo sapiens) (UniProt P16591); settings: Compound concentration 1000.0 nM
[23] = target: Insulin receptor (Homo sapiens) (UniProt P06213); settings: Compound concentration 1000.0 nM
[24] = target: Cyclin-dependent kinase 14 (Homo sapiens) (UniProt O94921); settings: Compound concentration 1000.0 nM
[25] = target: Serine/threonine-protein kinase NLK (Homo sapiens) (UniProt Q9UBE8); settings: Compound concentration 1000.0 nM
[26] = tested on: Phosphatidylinositol 4,5-bisphosphate 3-kinase catalytic subunit alpha isoform (Homo sapiens), P42336 [H1047L]; settings: Compound concentration 1000.0 nM
[27] = target: Mitogen-activated protein kinase kinase kinase 3 (Homo sapiens) (UniProt Q99759); settings: Compound concentration 1000.0 nM
[28] = tested on: Phosphatidylinositol 4,5-bisphosphate 3-kinase catalytic subunit alpha isoform (Homo sapiens), P42336 [M1043I]; settings: Compound concentration 1000.0 nM
[29] = target: Angiopoietin-1 receptor (Homo sapiens) (UniProt Q02763); settings: Compound concentration 1000.0 nM
[30] = target: Vascular endothelial growth factor receptor 3 (Homo sapiens) (UniProt P35916); settings: Compound concentration 1000.0 nM
[31] = target: Homeodomain-interacting protein kinase 4 (Homo sapiens) (UniProt Q8NE63); settings: Compound concentration 1000.0 nM
[32] = target: GABA-A receptor; anion channel (Rattus norvegicus) (UniProt O09028+P15431+P18506+P18508+P19969+P20236+P23574+P23576+P28471+P28473+P30191+P62813+P63079+P63138+Q91ZM7+Q9ES14); settings: Compound concentration 10.0 uM
[33] = target: Serine/threonine-protein kinase Chk2 (Homo sapiens) (UniProt O96017); settings: Compound concentration 1000.0 nM
[34] = target: Cyclin-G-associated kinase (Homo sapiens) (UniProt O14976); settings: Compound concentration 1000.0 nM
[35] = target: Receptor-interacting serine/threonine-protein kinase 2 (Homo sapiens) (UniProt O43353); settings: Compound concentration 1000.0 nM
[36] = target: Interleukin-1 receptor-associated kinase 1 (Homo sapiens) (UniProt P51617); settings: Compound concentration 1000.0 nM
[37] = target: Proto-oncogene tyrosine-protein kinase receptor Ret (Homo sapiens) (UniProt P07949); settings: Compound concentration 1000.0 nM
[38] = target: Serine/threonine-protein kinase 36 (Homo sapiens) (UniProt Q9NRP7); settings: Compound concentration 1000.0 nM
[39] = target: Mitogen-activated protein kinase 7 (Homo sapiens) (UniProt Q13164); settings: Compound concentration 1000.0 nM
[40] = target: Mitogen-activated protein kinase 8 (Homo sapiens) (UniProt P45983); settings: Compound concentration 1000.0 nM
[41] = target: Rhodopsin kinase GRK1 (Homo sapiens) (UniProt Q15835); settings: Compound concentration 1000.0 nM
[42] = target: Fibroblast growth factor receptor 1 (Homo sapiens) (UniProt P11362); settings: Compound concentration 1000.0 nM
[43] = target: Serine/threonine-protein kinase PLK1 (Homo sapiens) (UniProt P53350); settings: Compound concentration 1000.0 nM

Chain of 5'-AMP-activated protein kinase catalytic subunit alpha-1 (Homo sapiens) (Q13131 whole entry, looked up): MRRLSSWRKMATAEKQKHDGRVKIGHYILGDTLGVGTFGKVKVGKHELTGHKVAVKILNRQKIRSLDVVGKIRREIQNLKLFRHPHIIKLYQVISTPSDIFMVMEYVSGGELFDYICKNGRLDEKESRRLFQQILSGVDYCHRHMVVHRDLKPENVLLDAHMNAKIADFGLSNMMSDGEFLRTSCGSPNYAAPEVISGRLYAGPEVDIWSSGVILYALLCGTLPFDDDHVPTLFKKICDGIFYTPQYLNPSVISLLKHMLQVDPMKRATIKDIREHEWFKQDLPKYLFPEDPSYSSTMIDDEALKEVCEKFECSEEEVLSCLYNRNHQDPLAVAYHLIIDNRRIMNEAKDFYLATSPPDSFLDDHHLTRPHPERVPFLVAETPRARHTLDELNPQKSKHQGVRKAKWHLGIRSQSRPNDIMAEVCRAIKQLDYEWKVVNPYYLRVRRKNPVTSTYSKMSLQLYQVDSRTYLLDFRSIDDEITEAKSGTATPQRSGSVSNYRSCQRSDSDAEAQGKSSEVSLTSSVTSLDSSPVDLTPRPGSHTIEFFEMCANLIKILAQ
Chain of NUAK family SNF1-like kinase 1 (Homo sapiens) (O60285 whole entry): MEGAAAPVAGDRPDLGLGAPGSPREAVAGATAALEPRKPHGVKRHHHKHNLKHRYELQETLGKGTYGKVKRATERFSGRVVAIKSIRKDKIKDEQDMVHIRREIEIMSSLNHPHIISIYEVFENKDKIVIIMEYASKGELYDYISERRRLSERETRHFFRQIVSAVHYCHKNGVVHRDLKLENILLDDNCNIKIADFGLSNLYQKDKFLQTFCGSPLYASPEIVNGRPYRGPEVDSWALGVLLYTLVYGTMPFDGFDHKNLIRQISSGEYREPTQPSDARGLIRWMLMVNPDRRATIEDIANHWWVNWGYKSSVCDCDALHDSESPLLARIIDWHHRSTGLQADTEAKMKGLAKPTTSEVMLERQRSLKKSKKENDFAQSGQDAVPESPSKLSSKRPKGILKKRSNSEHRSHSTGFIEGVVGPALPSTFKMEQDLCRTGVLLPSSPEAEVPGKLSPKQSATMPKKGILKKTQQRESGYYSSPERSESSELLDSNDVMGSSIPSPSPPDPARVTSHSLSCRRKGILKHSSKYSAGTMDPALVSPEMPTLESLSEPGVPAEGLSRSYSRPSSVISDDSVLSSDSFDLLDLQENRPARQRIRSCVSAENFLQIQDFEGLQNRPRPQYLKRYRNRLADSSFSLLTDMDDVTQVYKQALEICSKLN
Chain of Rhodopsin kinase GRK1 (Homo sapiens) (Q15835 whole entry): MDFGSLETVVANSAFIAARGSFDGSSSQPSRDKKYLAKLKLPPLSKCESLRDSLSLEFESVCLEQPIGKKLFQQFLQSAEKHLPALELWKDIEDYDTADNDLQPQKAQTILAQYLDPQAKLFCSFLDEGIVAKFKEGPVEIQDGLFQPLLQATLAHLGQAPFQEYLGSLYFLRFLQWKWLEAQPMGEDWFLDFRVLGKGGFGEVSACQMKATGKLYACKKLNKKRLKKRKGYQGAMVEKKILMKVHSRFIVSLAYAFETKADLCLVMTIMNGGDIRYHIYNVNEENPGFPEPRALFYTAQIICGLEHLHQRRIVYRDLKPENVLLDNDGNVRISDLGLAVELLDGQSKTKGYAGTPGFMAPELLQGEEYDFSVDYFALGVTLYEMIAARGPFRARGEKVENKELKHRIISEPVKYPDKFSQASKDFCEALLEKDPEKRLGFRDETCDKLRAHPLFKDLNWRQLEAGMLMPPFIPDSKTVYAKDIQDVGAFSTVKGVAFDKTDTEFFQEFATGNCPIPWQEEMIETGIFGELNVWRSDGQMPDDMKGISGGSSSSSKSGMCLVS
Chain of Proto-oncogene tyrosine-protein kinase receptor Ret (Homo sapiens) (P07949 whole entry): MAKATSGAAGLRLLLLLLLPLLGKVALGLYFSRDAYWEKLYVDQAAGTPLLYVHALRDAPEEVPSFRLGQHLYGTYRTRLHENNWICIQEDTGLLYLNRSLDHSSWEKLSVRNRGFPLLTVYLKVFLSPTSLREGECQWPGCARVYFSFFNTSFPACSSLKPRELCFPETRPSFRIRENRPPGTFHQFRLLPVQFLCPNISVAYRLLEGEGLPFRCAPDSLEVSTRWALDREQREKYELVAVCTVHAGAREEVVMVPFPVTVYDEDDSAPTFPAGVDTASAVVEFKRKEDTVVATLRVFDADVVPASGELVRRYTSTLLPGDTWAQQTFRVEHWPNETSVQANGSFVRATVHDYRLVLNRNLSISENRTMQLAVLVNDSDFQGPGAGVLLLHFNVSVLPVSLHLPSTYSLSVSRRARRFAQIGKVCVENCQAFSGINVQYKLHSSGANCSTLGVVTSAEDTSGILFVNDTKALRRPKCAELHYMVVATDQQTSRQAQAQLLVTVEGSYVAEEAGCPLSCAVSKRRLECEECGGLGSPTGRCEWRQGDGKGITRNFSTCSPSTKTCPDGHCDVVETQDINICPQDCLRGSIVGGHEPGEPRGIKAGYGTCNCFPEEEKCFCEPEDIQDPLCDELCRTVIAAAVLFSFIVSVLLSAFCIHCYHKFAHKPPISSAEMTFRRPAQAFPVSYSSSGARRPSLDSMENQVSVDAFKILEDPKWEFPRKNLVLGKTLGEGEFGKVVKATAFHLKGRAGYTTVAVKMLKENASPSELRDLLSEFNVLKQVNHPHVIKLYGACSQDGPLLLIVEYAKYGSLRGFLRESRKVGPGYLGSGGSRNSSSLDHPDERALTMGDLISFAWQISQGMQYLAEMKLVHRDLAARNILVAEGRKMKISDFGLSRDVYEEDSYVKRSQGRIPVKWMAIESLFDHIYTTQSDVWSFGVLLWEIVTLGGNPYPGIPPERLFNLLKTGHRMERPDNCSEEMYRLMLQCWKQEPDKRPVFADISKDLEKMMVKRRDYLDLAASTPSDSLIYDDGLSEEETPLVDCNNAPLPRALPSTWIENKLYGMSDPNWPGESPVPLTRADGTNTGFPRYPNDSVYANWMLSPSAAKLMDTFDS
Chain of Mast/stem cell growth factor receptor Kit (Homo sapiens), P10721 [D816H] (P10721 whole entry D816H): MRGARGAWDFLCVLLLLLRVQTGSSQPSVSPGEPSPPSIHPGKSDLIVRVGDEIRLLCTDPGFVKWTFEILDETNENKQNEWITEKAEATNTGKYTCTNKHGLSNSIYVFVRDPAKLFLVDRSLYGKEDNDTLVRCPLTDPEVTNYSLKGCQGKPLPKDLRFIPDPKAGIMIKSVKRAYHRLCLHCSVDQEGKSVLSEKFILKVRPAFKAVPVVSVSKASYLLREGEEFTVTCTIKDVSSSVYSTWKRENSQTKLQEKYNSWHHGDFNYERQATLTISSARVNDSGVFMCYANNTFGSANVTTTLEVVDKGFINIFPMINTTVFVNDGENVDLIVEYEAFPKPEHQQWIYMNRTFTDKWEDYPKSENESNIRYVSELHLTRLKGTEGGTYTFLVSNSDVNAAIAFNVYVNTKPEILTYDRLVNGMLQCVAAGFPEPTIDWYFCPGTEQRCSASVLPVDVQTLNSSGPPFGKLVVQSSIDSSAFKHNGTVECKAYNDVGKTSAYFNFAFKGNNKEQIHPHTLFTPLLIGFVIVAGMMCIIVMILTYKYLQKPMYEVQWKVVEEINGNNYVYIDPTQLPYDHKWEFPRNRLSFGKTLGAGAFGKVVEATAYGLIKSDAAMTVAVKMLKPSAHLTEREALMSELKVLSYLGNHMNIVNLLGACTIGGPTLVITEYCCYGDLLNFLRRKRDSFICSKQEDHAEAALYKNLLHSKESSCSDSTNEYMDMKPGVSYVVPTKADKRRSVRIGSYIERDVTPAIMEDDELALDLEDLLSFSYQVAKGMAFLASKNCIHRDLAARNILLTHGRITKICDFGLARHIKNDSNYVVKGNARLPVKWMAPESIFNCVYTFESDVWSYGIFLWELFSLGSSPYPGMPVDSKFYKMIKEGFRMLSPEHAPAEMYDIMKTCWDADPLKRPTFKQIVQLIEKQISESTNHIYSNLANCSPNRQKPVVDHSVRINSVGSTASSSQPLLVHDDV
Chain of Ribosomal protein S6 kinase alpha-4 (Homo sapiens) (O75676 whole entry, looked up): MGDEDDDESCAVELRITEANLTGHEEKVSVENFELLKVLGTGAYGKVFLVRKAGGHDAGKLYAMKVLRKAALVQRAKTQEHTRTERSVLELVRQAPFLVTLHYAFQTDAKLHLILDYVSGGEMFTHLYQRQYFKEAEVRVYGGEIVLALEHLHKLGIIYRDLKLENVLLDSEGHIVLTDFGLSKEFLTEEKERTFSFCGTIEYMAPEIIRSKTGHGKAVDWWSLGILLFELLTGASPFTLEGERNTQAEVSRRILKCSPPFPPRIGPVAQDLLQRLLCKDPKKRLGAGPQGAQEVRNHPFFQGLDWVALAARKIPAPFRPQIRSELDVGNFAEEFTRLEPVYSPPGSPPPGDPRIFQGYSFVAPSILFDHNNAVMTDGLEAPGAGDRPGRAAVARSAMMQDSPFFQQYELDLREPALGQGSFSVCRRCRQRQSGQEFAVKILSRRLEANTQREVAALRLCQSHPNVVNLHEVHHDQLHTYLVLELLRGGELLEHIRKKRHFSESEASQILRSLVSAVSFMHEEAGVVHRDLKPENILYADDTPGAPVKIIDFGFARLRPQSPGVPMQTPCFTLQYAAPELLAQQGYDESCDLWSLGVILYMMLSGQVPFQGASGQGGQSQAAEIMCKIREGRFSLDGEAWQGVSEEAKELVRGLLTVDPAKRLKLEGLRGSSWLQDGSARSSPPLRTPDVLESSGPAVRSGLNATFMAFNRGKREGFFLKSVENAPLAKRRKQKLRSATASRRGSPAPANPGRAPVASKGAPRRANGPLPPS
Chain of Mast/stem cell growth factor receptor Kit (Homo sapiens), P10721 [L576P] (P10721 whole entry L576P): as the sequence (P10721 whole entry D816H) above, with L576P, H816D counted along it
Chain of Mast/stem cell growth factor receptor Kit (Homo sapiens), P10721 [V559D,V654A] (P10721 whole entry V559D/V654A): as the sequence (P10721 whole entry D816H) above, with V559D, V654A, H816D counted along it

SMILES: C[C@H](c1cccc(C#N)c1)n1cc(Cl)cc(C(N)=O)c1=N [(R)-9s]
- residual activity [1]: 83%
- residual activity [2]: 100%
- residual activity [3]: 100%
- residual activity [4]: 100%
- residual activity [5]: 93%
- residual activity [6]: 96%
- residual activity [7]: 100%
- residual activity [8]: 75%
- inhibition [9]: 10.8%
- residual activity [10]: 92%
- residual activity [11]: 98%
- residual activity [12]: 79%
- residual activity [13]: 80%
- residual activity [14]: 100%
- residual activity [15]: 92%
- residual activity [16]: 100%
- residual activity [17]: 83%
- residual activity [18]: 57%
- residual activity [19]: 57%
- residual activity [20]: 100%
- residual activity [21]: 88%
- residual activity [22]: 100%
- residual activity [23]: 97%
- residual activity [24]: 100%
- residual activity [25]: 44%
- residual activity [26]: 92%
- residual activity [27]: 91%
- residual activity [28]: 100%
- residual activity [29]: 96%
- residual activity [30]: 80%
- residual activity [31]: 100%
- inhibition [32]: 1.07%
- residual activity [33]: 100%
- residual activity [34]: 100%
- residual activity [35]: 66%
- residual activity [36]: 71%
- residual activity [37]: 94%
- residual activity [38]: 75%
- residual activity [39]: 88%
- residual activity [40]: 72%
- residual activity [41]: 74%
- residual activity [42]: 95%
- residual activity [43]: 89%

SMILES: C[C@@H](c1cccc(C#N)c1)n1cc(Cl)cc(C(N)=O)c1=N [(S)-9s]
- residual activity [1]: 89%
- residual activity [2]: 100%
- residual activity [3]: 100%
- residual activity [4]: 95%
- residual activity [5]: 86%
- residual activity [6]: 99%
- residual activity [7]: 100%
- residual activity [8]: 80%
- inhibition [9]: 8.25%
- residual activity [10]: 85%
- residual activity [11]: 88%
- residual activity [12]: 100%
- residual activity [13]: 86%
- residual activity [14]: 100%
- residual activity [15]: 100%
- residual activity [16]: 88%
- residual activity [17]: 71%
- residual activity [18]: 89%
- residual activity [19]: 94%
- residual activity [20]: 100%
- residual activity [21]: 90%
- residual activity [22]: 100%
- residual activity [23]: 100%
- residual activity [24]: 100%
- residual activity [25]: 91%
- residual activity [26]: 96%
- residual activity [27]: 95%
- residual activity [28]: 100%
- residual activity [29]: 90%
- residual activity [30]: 89%
- residual activity [31]: 100%
- inhibition [32]: 8.14%
- residual activity [33]: 100%
- residual activity [34]: 100%
- residual activity [35]: 88%
- residual activity [36]: 76%
- residual activity [37]: 100%
- residual activity [38]: 94%
- residual activity [39]: 88%
- residual activity [40]: 75%
- residual activity [41]: 75%
- residual activity [42]: 91%
- residual activity [43]: 98%
